Results from patent US20170112787A1, “METHODS OF TREATMENT OF INFLAMMATION OF THE GUT” (THE UNIVERSITY OF CONNECTICUT, priority 2015, published 2017).

Experiments:
siLP CX3CR1hi Mφ = test: Oral gavage; frequency of siLP CX3CR1hi Mφ and CX3CR1lo cells by flow cytometry; assay type: in vivo, mouse
From the text: Mice: C57BL/6, NOD/Lt, VR1^−/− (also known as TRPV1^−/−), IL27RA^−/− (also known as WSX-1^−/−) and CX3CR1^gfp/gfp, were obtained from the Jackson Laboratory (Bar Harbor, Me.). IL10-GFP reporter (Vert-X) mice were a kind gift from Dr. Roger S Thrall. All animals except NOD/Lt were on a C57BL/6 background. CX3CR1^gfp/gfp were crossed with C57BL/6 mice to obtain CX3CR1^gfp/+ mice. CX3CR1^gfp/gfp mice were backcrossed with VR1^−/− to obtain CX3CR1^gfp/+ VR1^−/− mice. IL27RA^−/− mice were backcrossed with C57BL/6 mice to obtain IL27RA^+/− mice. All animals were housed in the Center for Comparative Medicine at UConn Health. All experiments were conducted under the guidelines approved by the UConn Health Animal Care Committee.
(§1) Cell isolation: The siLP cells were isolated as per protocols known in the art. In brief, small intestines were removed from the mice, luminal contents were flushed with cold HBSS (Invitrogen, Carlsbad, Calif., USA) with 5% FBS, opened longitudinally after removing Peyer's patches and cut in to small pieces. The epithelial cells were removed by incubation with HBSS containing 1.3 mM EDTA (Invitrogen, Carlsbad, Calif., USA), 1mM HEPES (Invitrogen, Carlsbad, Calif., USA) and 0.77 mM DTT (Sigma, St. Louis, Mo., USA) at 37° C. shaking at 350 rpm. The intestinal pieces were then washed with PBS (Invitrogen, Carlsbad, Calif., USA) and digested in 100 units/ml collagenase IV (Sigma, St. Louis, Mo., USA) at 37° C. shaking at 550 rpm. Leukocytes were enriched using percoll (GE Healthcare, Piscataway, N.J., USA) gradient. The PLN, MLN and splenic cells were isolated by gently crushing the organs through 70 μm cell strainer (BD Falcon, Franklin, N.J., USA). Splenocytes were incubated with ACK lysing buffer (Invitrogen, N.Y., USA) to eliminate red blood cells for 3 mins at 37° C. and washed twice with PBS.
(§2) Flow cytometry: Fluorescently labeled antibodies used for surface staining included: CD11b (M1/70), CD11 c (N418), CX3CR1 (polyclonal), CD103 (2E7), CD64 (X54-5/7.1), MHCII (M5/114.15.2), B220 (RA3-6B2), CD3 (145-2C11), CD4 (RM4-5), CD25 (PC61) and CD62L (ME2-14) and those used for intracellular staining include: VR1 (polyclonal) IL10 (JESS-16E3), TNFα (MP6-XT22), IFNγ (XMG1.2), and IL17A (TC11-18H10.1). For detection of CB2, primary antibody against CB2 (polyclonal) was used followed by fluorescently labeled secondary antibody. All were purchased from Biolegend San Diego, Calif., USA except for TNFα (Becton Dickinson, San Jose, Calif., USA), CX3CR1 (R&D Minneapolis, Minn., USA), VR1 (Thermo Scientific, Rockford, Ill. USA), IL10 (eBioscience, San Diego Calif., USA) and CB2 (Thermo Scientific, Rockford, Ill. USA). Cells were acquired with a LSRII flow cytometer (Becton Dickinson, San Jose, Calif., USA) or sorted with a FACSAria™ machine (Becton Dickinson, San Jose, Calif., USA). Flow cytometry analysis was done with the FlowJo Version 9.7.6 (Tree Star, Ashland, Oreg,).
(§3) Oral administration of CP, AEA and PF3845: Mice were anesthetized with intraperitoneal injection of ketamine (2 mg/kg) and xylazine (0.1 mg/kg). Vehicle control (tween 80 (5%), […] in PBS) or CP (10 μg) (ENZO Life Sciences, Farmingdale, N.Y., USA) or AEA (250 μg, 400 μg or 500 μg) (Cayman Chemical Co., Ann Arbor, Mich., USA) or PF3845 (5 mg/kg) (Cayman Chemical Co., Ann Arbor, Mich., USA) were gavaged in 100 μl volume using an 18-gauge feeding needle (Popper & Sons, New Hyde Park, N.Y., USA).

[1] = system: siLP CX3CR1hi Mφ and CD103+ DCs; test: Oral gavage; IL10, TNF-α and CX3CR1 expression in siLP CX3CR1hi Mφ and CD103+ DCs by flow cytometry; assay type: in vivo, mouse
Method: as §1, §2
Intracellular cytokine staining: Cells were incubated with PMA (50 ng/ml) (Sigma Co., St. Luis, Mo., USA) plus ionomycin (1 μg/ml) (Sigma Co., St. Luis, Mo., USA) in the presence of golgi plug (BD Biosciences, San Jose, USA) for 5 hours at 37° C. followed by surface staining with fluorochrome conjugated antibodies and then intracellular staining of IL10, TNFα, IFNγ, and IL17A was performed by fixation and permeabilization according to manufacturer's protocol BD Cytofix/Cytoperm™ kit. […]

[2] = system: naïve splenic CD4+ T cells; test: In vitro co-culture of siLP MNPs sorted from treated mice with naïve splenic CD4+ T cells; assay type: cell-based, mouse
Method: (§4) Intracellular cytokine staining: Cells were incubated with PMA (50 ng/ml) (Sigma Co., St. Luis, Mo., USA) plus ionomycin (1 μg/ml) (Sigma Co., St. Luis, Mo., USA) in the presence of golgi plug (BD Biosciences, San Jose, USA) for 5 hours at 37° C. followed by surface staining with fluorochrome conjugated antibodies and then intracellular staining of IL10, TNFα, IFNγ, and IL17A was performed by fixation and permeabilization according to manufacturer's protocol BD Cytofix/Cytoperm™ kit.
In vitro co-culture assays: For in vitro co-culture assays, siLP MNPs were sorted as described previously from C57BL/6 or CX3CR1^gfp/+ mice. MNPs (10×10^4) were cocultured for 4 days with splenic naïve CD25^− CD62L^hi CD4^±T cells sorted from untreated C57BL/6 or IL27Ra^−/− mice at 1:1 ratios in the presence of soluble αCD3 mAb (145-2C11) (0.5 μg/ml) in U-bottomed 96 well plates. The cultured cells were maintained in RPMI 1640 medium supplemented with 5% fetal bovine serum, 1 mM sodium pyruvate, 1 mM non-essential amino acids, 2 mM L-gluatamine, 50 units/ml streptomycin, and 50 μM Beta-mercaptoethanol, all purchased from Gibco/Invitrogen (Carlsbad, Calif., USA). After 4 days, the cultured cells were washed with PBS and surface stained with CD4 and intracellular staining was performed for IL10 and IFN-γ.
as §3

IL27-p28 = test: qPCR of IL27-p28 in sorted siLP MNPs after oral gavage; assay type: in vivo, mouse; conditions: two days after treatment, with respect to vehicle
Method: as §3
qPCR: Total RNA was isolated from sorted siLP MNP using the RNeasy® Micro kit Oaten, Chatsworth, Calif., USA). cDNA was made from total RNA using iSCRIPT™ cDNA synthesis kit (Bio-Rad Laboratories, Hercules, Calif.). IL-27 gene expression was measured using IL-27 TactMan® Gene Expression Assay (Life technologies, Grand Island, N.Y., USA) and CFX96™ Real-Time PCR detection system (Bio-Rad Laboratories, Hercules, Calif., USA). Gene expression was normalized to GAPDH.

[3] = system: CX3CR1+ Mφ in PLN and MLN; test: Oral gavage; frequency of CX3CR1+ Mφ in PLN and MLN by flow cytometry; assay type: in vivo, mouse
Method: as §1
as §2, with “Flow cytometry analysis was done with the FlowJo Version 9.7.6 (Tree Star, Ashland, Oreg,).” left out

[4] = system: CD4+IL10+IFN-γ+ Tr1 cells; test: Oral gavage; frequency of CD4+IL10+IFN-γ+ Tr1 cells and IL17A+ CD4+ T cells in siLP and PLN; assay type: in vivo, mouse
Method: as §1, §2, §4, §3
We now tested if CP can elicit such regulatory T cells in vivo. NOD mice were orally gavaged twice at 9th and 10th week of age with 10 μg CP or vehicle as a control; two weeks post CP treatment, siLP and the PLN were harvested and the frequency of CD4+IL10+IFN-γ+ Tr1 cells was measured.

[5] = system: Type 1 Diabetes in NOD mice; test: Adoptive transfer of CD4+ T cells from treated NOD donors; diabetes development by urine glucose; assay type: in vivo, mouse; conditions: CD4+ T cells from PLN and spleen of treated female NOD donors, vs vehicle elicited cells
Method: Adoptive transfer: Female NOD mice were orally gavaged with CP 10 μg or vehicle at 9 and 10 weeks of age as described earlier. 2 weeks later CD4^+ T cells were sorted from the PLN and spleen of the treated mice. All recipient female NOD mice were sub-lethally irradiated. Four hours after irradiation the recipient mice received […] diabetogenic splenocytes. 7×10^6 sorted CD4^+ T cells were then transferred to naïve NOD female mice by retro-orbital injection at 11 weeks of age. Development of diabetes was monitored by measuring urine glucose using Diastix® reagent strips (Bayer, Elkhart, Ind., USA). Mice were considered diabetic after two consecutive readings of >1000 mg/dl of urine glucose.

[6] = CX3CR1gfp/+ mice, oral gavage, 24 hours after feeding, vs vehicle
[7] = NOD mice, 10 μg at 9th and 10th week, two weeks post treatment

`COc1cc(CNC(=O)CCCC/C=C/C(C)C)ccc1O` [CP, Capsaicin] was tested, and the “frequency and number of CX3CR1lo cells in siLP” value (siLP CX3CR1hi Mφ; CX3CR1gfp/+ mice, oral gavage 10 μg, 24 hours, vs vehicle) was “did not affect the frequency and number”, the “frequency of CX3CR1hi Mφ in siLP” value (siLP CX3CR1hi Mφ; [6]) was “significantly increased the frequency” and the “frequency of CX3CR1hi Mφ in siLP” value (siLP CX3CR1hi Mφ; CX3CR1gfp/gfp mice (lack functional CX3CR1), oral gavage 10 μg, 24 h) was “no changes in the frequency”. For the same compound, the “frequency of CX3CR1hi Mφ in siLP” value (siLP CX3CR1hi Mφ; NOD mice, oral administration) was “increases the frequency”, the “production of TNF-α in CX3CR1hi Mφ” value ([1]; 24 hours after treatment, vs controls) was “decreased” and the “expression of CX3CR1 on CX3CR1hi Mφ” value ([1]; CX3CR1gfp/+ mice, vs vehicle) was “significantly increased expression of CX3CR1”. For the same compound, the “IL10 production in CD103+ DCs” value ([1]; IL10-GFP reporter mice, oral gavage 10 μg, 24 hrs) was “modest but statistically significant increase in IL10 production”, the “production of IL10 in CX3CR1hi Mφ” value ([1]; IL10 GFP-reporter mice, 24 hours after treatment, vs controls) was “significant increase in the production of IL10” and the “expression of IL10 in CD4+ T cells” value ([2]; MNPs sorted 24 hours after treatment, co-culture 1:1, four days) was “significant increase in the expression of IL10”. The “induction of CD4+ T cells expressing both IL10 and IFN-γ (Tr1)” value ([2]; MNPs sorted 24 hours after treatment, co-culture 1:1, four days, IL27RA+/+ T cells) was “significant increase in the induction”, the “increase in frequency of CD4+ IL10+ IFN-γ+ T cells” value ([2]; T cells derived from IL27RA−/− mice) was “completely abrogated” and the “level of IL27-p28 in the MNPs” value (IL27-p28) was “five fold increase”. The “frequency of CX3CR1+ Mφ in the MLN” value ([3]; 3 days after feeding 10 μg) was “but not in MLN”, the “frequency of CX3CR1+ Mφ in the PLN” value ([3]; 3 days after feeding 10 μg) was “significant VR1-dependent increase in the frequency” and the “frequency of CX3CR1+ Mφ in the PLN” value ([3]; NOD mice, 3 days post oral gavage 10 μg) was “significant increase in the frequency”. For the same compound, the “elicitation of Tr1 cells in PLN” value ([4]; CX3CR1gfp/gfp mice (no functional CX3CR1)) was “does not elicit Tr1 cells”, the “Tr1 cell elicitation by IL27RA genotype” value ([4]; IL27RA −/−, +/− and +/+ mice) was “gene dose-dependence of Tr1 cell elicitation” and the “dependence of elicited Tr1 cells on IL27 signaling” value ([4]; IL27RA+/+ vs IL27RA−/− mice, PLN) was “require the presence of functional IL27-IL27R signaling”. For the same compound, the “frequency of Tr1 cells in PLN” value [4, 7] was “expansion of Tr1 cells”, the “frequency of Tr1 cells in siLP” value [4, 7] was “expansion of Tr1 cells” and the “frequency of IL17A+ CD4+ T cells in the PLN” value ([4]; NOD mice, oral administration) was “significant decrease in the frequency”. The “protection from T1D by transferred CD4+ T cells” value [5] was “significantly higher protection from T1D”.

`O=C(Nc1cccnc1)N1CCC(Cc2cccc(Oc3ccc(C(F)(F)F)cn3)c2)CC1` [PF3845] was tested, and the “frequency of CX3CR1hi Mφ in siLP” value (siLP CX3CR1hi Mφ; [6]) was “increase in the frequency”.
